From patent US8092789B1, “Indian meal moth attractant” (The United States of America, as represented by the …, priority 2009, dated 2012)

Test system: Plodia interpunctella adult females
Assay: flight tunnel bioassay of attraction (upwind progress score)
Format: in vivo
Set-up: key to Score (flight tunnel bioassay): 0.25 per quarter line crossed; final 0.25 for contacting test subject
Conditions: for Score (flight tunnel bioassay): day 22 Plodia females, ten females per test, observed ten minutes, 0.25 per quarter line crossed and for contact
Description: All tests were conducted in a clear, acrylic flight chamber 75 cm (L), 22 cm (W), 24 cm (H). Room air was pushed through the chamber with a 115 volt, 0.35 Amp motor-driven roller fan. Air speed was maintained at 0.4 m/sec. The chamber was positioned horizontally on a table in a walk-in environmental chamber maintained at 30° C. and 65% R.H. The only light was provided by a 25 Watt red filtered incandescent bulb centrally positioned 90 cm above tunnel floor and providing 9.0 Lux at the floor center.
Insects used were laboratory reared Plodia interpuctella. Ten 4-day old adult females from a general rearing box were selected and transferred into a 7 dram screened plastic vial for each test. Tests were performed only during the first four hours of the scotophase. Test subjects consisted of either natural products held in a glass Petri dish (Kimax, 5 cm diameter) or liquid volatiles pipetted onto a filter paper disc (Whatman #3, 2.3 cm) held off the floor by a plastic disc (5 cm diameter). These were placed upwind. A test began when the vial containing the moths was placed on the floor down-wind and the lid of the vial was removed. Distance between vial and test material was 62 cm. […] A final 0.25 was scored for actually contacting the test subject. Individual moths were tested only once.
Volatiles from natural products were collected for twenty-four hours by passing commercial, compressed nitrogen through a 150 cm^3 glass collection chamber (Analytical Research Systems) connected by tubing to an inert filter trap of 20 mg SuperQ (Alltech Associates). The collected volatiles were eluted with 150 ul dichloromethane and then bioassayed in the flight tunnel and analyzed by GC-MS. The SuperQ filter traps were rinsed with 200 ul dichloromethane immediately before each use.

Row | Structure (SMILES) | Score (flight tunnel bioassay) (Table 1) | Score (flight tunnel bioassay) (Table 2) | attractiveness alone (dilutions in dichloromethane, FIG. 3)
1 | CCCCC(C)=O [2-hexanone] | 3.63 | 3.63 | –
2 | CC1=CC[C@H]2[C@H]3[C@@H]1[C@]2(C)CC[C@H]3C(C)C [a-copaene] | 3.07 | 3.07 | –
3 | CC1(C)C2CCC1(C)C(O)C2 (stereo not drawn) [borneol] | 2.83 | 2.83 | –
4 | Cc1ccc(C(C)C)cc1 [cymene] | 3.00 | 3.00 | –
5 | CCCCCC=CCCC(=O)OCC [ethyl 4-decenoate] | 3.50 | 3.50 | –
6 | CCOc1cc(C=O)ccc1O [ethyl vanillin] | 2.63 | 2.63 | –
7 | CCCCCCOC(C)=O [hexyl acetate] | 3.60 | 3.60 | –
8 | CCCCCCCC(=O)OC [methyl octanoate] | 2.91 | 2.91 | –
9 | C=CC(=C)CCC=C(C)C [myrcene] | 2.95 | 2.95 | –
10 | CCC/C=C/CO [trans-2-hexen-1-ol] | 3.00 | 3.00 | –
11 | CCCCCCCCCCC [undecane] | – | – | unattractive alone
